Read-outs that look alike come from different tables or passages of the source.
Legend:
GGT = GGT (Equus caballus, UniProt A0A9L0SYL6); test: Kinetics of GGT inhibition (Ki) varying donor GpNA or acceptor Gly-Gly concentration; assay type: biochemical, horse; details: for type of inhibition: both with respect to the acceptor substrate and to the donor substrate, Vmax decreases, km almost unchanged; for Ki: average of Michaelis-Menten and Lineweaver-Burk
Procedure: (§1) GGT activity assay: GGT activity was determined by a colorimetric test. The analysis buffer contains 100 mM Tris-HCl pH 7.8 or PBS 1X pH 7.4. Each reaction contains 1 mM of γ-glutamyl-para-nitroanilide (GpNA) as a donor substrate and 40 mM glycyl-glycine (glygly) as an acceptor substrate. The enzyme GGT purified from murine tissues or human cells, or from equine sources (purchased from Sigma) was added at the end to start the test. The formation of the product, p-nitroaniline, was continuously monitored at room temperature at 405 nm using a Bio-Rad 680 microplate reader with the Microplate Manager 5.2 software (Bio-Rad). One unit of GGT activity was defined as the amount of GGT that released 1 µmοl of p-nitroaniline/min at room temperature. The molecules tested as inhibitors, Erg, DON and DTT were purchased by Sigma Aldrich.
(§2) The enzymatic activity assays were carried out using the Tate & Meister spectrophotometric assay, using the γ-glutamyl-para-nitroanilide chromogen (GpNA) as a donor substrate, glycyl-glycine as a substrate and a purified commercial GGT solution as a biocatalyst from horse (EqGGT) with a high % identity with the human one. These assays were also performed in the presence of GGT isolated directly from the hepatic mouse tissues and/or from human cell cultures (hGGT). The inhibition of EqGGT and hGGT by 5-thio and ovothiol A was compared with that of Erg and the GGT DON commercial inhibitor. […] Instead, the already known GGT inhibitors are toxic at much lower concentrations.
The inhibition constants Ki and GGT inactivation rate for 5-thio and ovothiol A were determined by varying both the concentrations of the GpNA donor substrate and maintaining the Gly-Gly acceptor concentrations fixed and vice versa, as shown in Figure 2. Ki (dissociation constant related to E) was calculated as a function of Vmax. For all the compounds the Vmax decreases as the concentration of inhibitor increases, while the km remains almost unchanged.

keratinocytes HaCat = test: Cell toxicity in human cell lines; assay type: cell-based; details: up to concentrations of 200 µM
EqGGT = EqGGT (Equus caballus, UniProt A0A9L0SYL6); test: GGT activity assay (colorimetric, GpNA donor / glycyl-glycine acceptor), IC50; assay type: biochemical, horse
Sequence of EqGGT (A0A9L0SYL6 entry or part of it): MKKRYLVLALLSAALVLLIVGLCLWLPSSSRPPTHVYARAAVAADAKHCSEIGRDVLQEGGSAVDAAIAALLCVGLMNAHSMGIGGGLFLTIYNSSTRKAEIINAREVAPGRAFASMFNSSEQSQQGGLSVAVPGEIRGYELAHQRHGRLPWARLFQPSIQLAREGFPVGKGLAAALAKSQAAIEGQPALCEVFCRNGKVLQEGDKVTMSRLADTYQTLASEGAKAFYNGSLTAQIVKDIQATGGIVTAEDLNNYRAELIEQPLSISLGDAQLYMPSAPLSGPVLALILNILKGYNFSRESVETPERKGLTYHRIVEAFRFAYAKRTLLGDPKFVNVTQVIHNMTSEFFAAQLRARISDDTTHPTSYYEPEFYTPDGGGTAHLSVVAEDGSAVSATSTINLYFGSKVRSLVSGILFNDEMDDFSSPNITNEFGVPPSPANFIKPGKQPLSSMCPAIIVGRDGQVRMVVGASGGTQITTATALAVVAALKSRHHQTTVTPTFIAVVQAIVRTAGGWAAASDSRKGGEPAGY
Procedure: as §1, §2

HEK293 = test: Cell toxicity in human cell lines; assay type: cell-based; details: up to concentrations of 200 µM; HEK293 (renal embryonic origin)
[1] = read-out: Ki (GpNA), varying donor substrate GpNA, Gly-Gly fixed

Sequence of GGT (A0A9L0SYL6 entry or part of it): as above

Structure (SMILES) | type of inhibition (GGT) | Ki (GGT; varying acceptor substrate Gly-Gly, GpNA fixed, read-out: Ki (gly-gly)) [µM] | Ki (GGT; varying donor substrate GpNA, Gly-Gly fixed, read-out: Ki (GpNA)) [µM] | cell toxicity (keratinocytes HaCat) | IC50 (EqGGT; concentration inducing 50% inhibition of GGT activity, 1 mM GpNA, 40 mM glycyl-glycine, ovothiol A and 5-thio as disulfide, read-out: IC50) [µM] | times more active than Erg and DON in inhibiting GGT activity (EqGGT; disulfide forms) | cell toxicity (HEK293) | Ki (GGT; [1]) [µM] | Ki (GGT; read-out: Ki (gly-gly), varying acceptor substrate Gly-Gly, GpNA fixed) [µM] | IC50 (EqGGT) [µM] | IC50 (EqGGT; concentration inducing 50% inhibition of GGT activity, 1 mM GpNA, 40 mM glycyl-glycine, ovothiol A and 5-thio as disulfide) [µM]
NC(Cc1[nH]cnc1SSc1nc[nH]c1CC(N)C(=O)O)C(=O)O (stereo not shown) | non-competitive inhibitors | 17.4 ± 6.1 | 6.9 ± 2.91 | no cell toxicity | 13 | 10-20 times | no cell toxicity |  |  |  | 
[N-]=[N+]=CC(=O)CC[C@H](N)C(=O)O [DON, 6-diazo-5-oxo norleucine, reference compound] |  |  |  |  |  |  |  | 156 ± 15.3 | 200 ± 62.7 | 250 | 
C[N+](C)(C)C(Cc1cnc(S)[nH]1)C(=O)[O-] (stereo not drawn) [Erg, N-alpha-trimethyl-2-thiohistidine, reference compound] | non-competitive inhibitors |  |  |  |  |  |  | 229 ± 53.9 |  |  | 277

From patent EP3666760B1, “5-THIOISTIDINE COMPOUNDS AND METHYLATED DERIVATIVES (OVOTHIOLS) AS INHIBITORS OF GAMMA-GLUTAMYL-TRANSPEPTIDASE (GGT) ACTIVITY” (Stazione Zoologica "Anton Dohrn", priority 2018, dated 2020)
